Source: patent US10045998B2 (BASF SE, priority 2013, dated 2018)
Where two headings read alike, the source gives them in different places. One block for each compound: values may come before it.

Legend:
[1] = recent publications; quick absorption of a small fraction of the dose; cited from earlier work
[2] = biopharmaceutics classification system; report EMA/CHMP/542871/2011; cited from earlier work
[3] = Aqueous solubility in purified water, 24 h equilibration, HPLC; assay type: physicochemical; settings: 25° C.; for Aqueous solubility S: 24 h equilibration, effective solubility of abiraterone acetate (corrected for formula mass), LOD ca. one microgram per ml
Method: (§1) The resulting suspension is equilibrated in a temperature-controlled Eppendorf Thermomixer Comfort shaker for 2 hours or 24 hours at 25° C. at a shaking rate of 700 rpm. After 2 hours, or 24 hours, the solid phases are recovered by filter centrifugation (0.22 μm PVDF membrane). Concentrations in the filtrate after 2 hours or 24 hours (i.e. saturated solution) are determined by HPLC using under conditions given in the below Table; limit of detection (LOD) is ca. one microgram per ml.
(§2) For the results in Table a), the medium is purified water.

[4] = Solubility of abiraterone acetate in phosphate buffer and various amounts of organic acids; assay type: physicochemical; settings: for solubility: thermodynamic from solid, read-out: Solubility S
Method: as §1, §2

[5] = Dynamic (water) vapour sorption (DVS), hygroscopicity; assay type: physicochemical; settings: 25° C.
Method: DVS: Dynamic (water) vapour sorption (DVS) is performed with a SPS11-100n (“Sorptions Prüfsystem” moisture sorption instrument from Projekt Meβtechnik, Ulm, Germany, using about 20 mg of sample material in an aluminum pan with a change rate of 5% of total relative humidity per hour. Program starting value of 50% with equilibration for 2 hours, continuously lowering to 0%, equilibration (i.e. humidity kept constant), scanning from 0% to 95%, equilibration, scanning from 95% to 0%, equilibration, scanning from 0% to 95%, equilibration, and scanning to 50% relative humidity. Sample temp. 25° C.

[6] = pKa of the organic acid / coformer; cited from earlier work

Aqueous solubility S [3]: <LOD
solubility ([4]; pH 3.1, aqueous buffer, phosphate buffer, no acid added, 25° C.): 2 µg/mL
solubility ([4]; phosphate buffer with ascorbic acid, pH 2.4, aqueous buffer, phosphate buffer, ascorbic acid 0.5 mol/L, 25° C.): 33 µg/mL
solubility ([4]; phosphate buffer with ascorbic acid, pH 2.8, aqueous buffer, phosphate buffer, ascorbic acid 0.1 mol/L, 25° C.): 5 µg/mL
solubility ([4]; phosphate buffer with citric acid, 25 °C, pH 2.3, aqueous buffer): 14 µg/mL
pH ([4]; phosphate buffer, ascorbic acid 0.1 mol/L): 2.8
pH ([4]; phosphate buffer, ascorbic acid 0.5 mol/L): 2.4
pH ([4]; phosphate buffer, citric acid 0.5 mol/L): 2.3
pH ([4]; phosphate buffer, no acid added): 3.1
Structure (SMILES): CC(=O)O[C@H]1CC[C@@]2(C)C(=CC[C@@H]3[C@@H]2CC[C@]2(C)C(c4cccnc4)=CC[C@@H]32)C1 [Abiraterone acetate, (3β)-17-(3-pyridinyl)androsta-5,16-dien-3-yl acetate]
median peak concentration, time after dosing [1]: 2 h
BCS class [2]: class IV

Structure (SMILES): CC(=O)O[C@H]1CC[C@@]2(C)C(=CC[C@@H]3[C@@H]2CC[C@]2(C)C(c4cccnc4)=CC[C@@H]32)C1.O=C(O)CC(O)C(=O)O [Example 3]
Aqueous solubility S [3]: 13.8 microgram/ml
maximum water up-take at 95% r.h. [5]: less than 4%

Aqueous solubility S [3]: 14.4 microgram/ml
pH of the saturated solution ([3]; after 24 h equilibration): 2.3
Structure (SMILES): O=C(O)/C=C\C(=O)O [Example 4, Maleic acid]

water up-take at 80% r.h. [5]: 0.1 to 0.2%
maximum water up-take at 95% r.h. [5]: less than 0.4%
Structure (SMILES): CC(=O)OC1CCC2(C)C(=CCC3C2CCC2(C)C(c4cccnc4)=CCC32)C1.O=C1NS(=O)(=O)c2ccccc21 (centres unmarked) [Example 6]

Structure (SMILES): CC(=O)O[C@H]1CC[C@@]2(C)C(=CC[C@@H]3[C@@H]2CC[C@]2(C)C(c4cccnc4)=CC[C@@H]32)C1.COc1cc(C(=O)O)ccc1O [Example 8]
water up-take at 80% r.h. [5]: about 0.2%
maximum water up-take at 95% r.h. [5]: less than 0.4%

Structure (SMILES): O=C(O)[C@H](O)[C@@H](O)C(=O)O [L-Tartaric acid, L-tartaric acid]
pKa [6]: L-Tartaric acid (2.95)
